Values of other authors as cited in patent US12622888B2, “Pharmaceutical composition and application thereof” (priority 2019, dated 2026).

Test system: infarct size of the heart
Settings: prior art CN2011102229806, FIG. 3

## CC(C)=CCC[C@](C)(O[C@@H]1O[C@H](CO)[C@@H](O)[C@H](O)[C@H]1O)[C@H]1CC[C@]2(C)[C@@H]1[C@H](O)C[C@@H]1[C@@]3(C)CC[C@H](O)C(C)(C)[C@@H]3[C@@H](O[C@@H]3O[C@H](CO)[C@@H](O)[C@H](O)[C@H]3O)C[C@]12C [ginsenoside Rg1]
  rank order of the effect on reducing the infarct size: salvianolic acid B <ginsenoside Rg1<<salvianolic acid B: ginsenoside Rg1=2:5 group

## O=C(/C=C/c1ccc(O)c2c1[C@H](C(=O)O[C@H](Cc1ccc(O)c(O)c1)C(=O)O)[C@@H](c1ccc(O)c(O)c1)O2)O[C@H](Cc1ccc(O)c(O)c1)C(=O)O [salvianolic acid B]
  rank order of the effect on reducing the infarct size: salvianolic acid B <ginsenoside Rg1<<salvianolic acid B: ginsenoside Rg1=2:5 group
